Where a SMILES comes first, the peptide text is derived from it. [ ]: non-standard residue; d: D form. ξ: configuration not given here. ξBip(2'-Et-4'-OMe) = CCc1cc(OC)ccc1-c1ccc(CC(N)C(=O)O)cc1; Arg(NO2) = N=C(NCCC[C@H](N)C(=O)O)N[N+](=O)[O-]; ξαMePhe(2,6-F2) = CC(N)(Cc1c(F)cccc1F)C(=O)O; αMePhe(2-F) = C[C@](N)(Cc1ccccc1F)C(=O)O; ξαMePhe(2-F) = CC(N)(Cc1ccccc1F)C(=O)O; hhPhe = N[C@@H](CCCc1ccccc1)C(=O)O; hArg = N=C(N)NCCCC[C@H](N)C(=O)O; hCit = NC(=O)NCCCC[C@H](N)C(=O)O; Nle = CCCC[C@H](N)C(=O)O; Orn = NCCC[C@H](N)C(=O)O; Ac5c = NC1(C(=O)O)CCCC1; Ac3c = NC1(C(=O)O)CC1; Aib = CC(C)(N)C(=O)O
Key:
Assay type in all cases: in vitro ADME
[1] = Stability of peptides in human liver microsomes; conditions: human, microsomes; for % degradation of peptides in 24 h when incubated with liver microsomes: 2 μM, pH 7.8
How it was run: (§1)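 Peptides at 2 μM final incubated 0–24 h at 37 °C (50 mM triethanolamine-HCl, pH 7.8) in each matrix, matrix level set to degrade ~50% PTH(1-34) in 1 h; TFA-quenched, C18 HPLC at 206 nm with ESI-MS peak identification; percent degradation from peak areas at each time point.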

[2] = Stability of peptides in human plasma; conditions: human, plasma; for metabolised at 24 h, 2 μM: pH 7.8
How it was run: as §1

[3] = Stability of peptides in simulated intestinal fluid (pH 7.5); conditions: pH 7.5; for half-life (t1/2) in simulated intestinal fluid / half-life: simulated gi fluid; for % degradation of peptides in 24 h when incubated with simulated intestinal fluid: 2 μM
How it was run: as §1

[4] = Stability of peptides in simulated gastric fluid (pH 1.5; HCl, NaCl and Pepsin); conditions: pH 1.5; for % degradation of peptides in 24 h when incubated with simulated gastric fluid: 2 μM; for half-life (t1/2) in simulated gastric fluid / half-life: simulated gi fluid

CCCC[C@H](NC(=O)[C@H](CC(C)C)NC(=O)[C@H](CCC(N)=O)NC(=O)[C@@H](NC(=O)[C@H](CCC(=O)O)NC(=O)C1(NC(=O)[C@@H](NC(=O)C2(N)CC2)C(C)C)CC1)[C@@H](C)CC)C(=O)N[C@@H](Cc1c[nH]cn1)C(=O)N[C@@H](CCC(N)=O)C(=O)N[C@@H](CCCCNC(=N)N)C(=O)N[C@@H](C)C(=O)N[C@@H](CCCCN)C(=O)NC(Cc1ccc(-c2ccc(OC)cc2CC)cc1)C(=O)N[C@@H](CCCc1ccccc1)C(N)=O (stereo partly shown) [Seq. ID. 610] (H-[Ac3c]V[Ac3c]EIQL[Nle]HQ[hArg]AK[ξBip(2'-Et-4'-OMe)][hhPhe]-NH2)
half-life [1]: 1 h
% degradation of peptides in 24 h when incubated with liver microsomes [1]: 78%
half-life [2]: 8 h
metabolised at 24 h, 2 μM [2]: 71%
half-life (t1/2) in simulated intestinal fluid [3]: (6) h
% degradation of peptides in 24 h when incubated with simulated intestinal fluid [3]: 40%
% degradation of peptides in 24 h when incubated with simulated gastric fluid [4]: 14%
half-life (t1/2) in simulated gastric fluid [4]: (8) h

CCCC[C@H](NC(=O)C(C)(Cc1c(F)cccc1F)NC(=O)[C@H](CCC(N)=O)NC(=O)[C@@H](NC(=O)[C@H](CCC(=O)O)NC(=O)C(C)(C)NC(=O)[C@@H](NC(=O)C1(N)CCCC1)C(C)C)[C@@H](C)CC)C(=O)N[C@@H](Cc1c[nH]cn1)C(=O)N[C@@H](CCC(N)=O)C(=O)N[C@@H](CCCCNC(=N)N)C(=O)NC(C)(C)C(=O)NC(C)(Cc1c(F)cccc1F)C(=O)NC(C)(Cc1ccccc1F)C(N)=O (stereo partly shown) [Seq. ID. 220] (H-[Ac5c]V[Aib]EIQ[ξαMePhe(2,6-F2)][Nle]HQ[hArg][Aib][ξαMePhe(2,6-F2)][ξαMePhe(2-F)]-NH2)
half-life [1]: 1 h
% degradation of peptides in 24 h when incubated with liver microsomes [1]: 83%
half-life [2]: 8 h
metabolised at 24 h, 2 μM [2]: 75%
half-life (t1/2) in simulated intestinal fluid [3]: (6) h
% degradation of peptides in 24 h when incubated with simulated intestinal fluid [3]: 46%
% degradation of peptides in 24 h when incubated with simulated gastric fluid [4]: 12%
half-life (t1/2) in simulated gastric fluid [4]: (8) h

CCCC[C@H](NC(=O)C(C)(Cc1c(F)cccc1F)NC(=O)[C@H](CCC(N)=O)NC(=O)[C@@H](NC(=O)[C@H](CCC(=O)O)NC(=O)C(C)(C)NC(=O)[C@@H](NC(=O)C(C)(C)N)C(C)C)[C@@H](C)CC)C(=O)N[C@@H](Cc1c[nH]cn1)C(=O)N[C@@H](CCC(N)=O)C(=O)NC(C)(Cc1c(F)cccc1F)C(=O)N[C@@H](C)C(=O)NC(C)(Cc1c(F)cccc1F)C(=O)NC(Cc1ccc(-c2ccc(OC)cc2CC)cc1)C(=O)N[C@@H](CCCc1ccccc1)C(N)=O (stereo partly shown) [Seq. ID. 880] (H-[Aib]V[Aib]EIQ[ξαMePhe(2,6-F2)][Nle]HQ[ξαMePhe(2,6-F2)]A[ξαMePhe(2,6-F2)][ξBip(2'-Et-4'-OMe)][hhPhe]-NH2)
half-life (t1/2) in liver microsomes [1]: (5) h
% degradation of peptides in 24 h when incubated with liver microsomes [1]: 31%
half-life [2]: > 24 h
metabolised at 24 h, 2 μM [2]: 0%
half-life [3]: > 24 h
% degradation of peptides in 24 h when incubated with simulated intestinal fluid [3]: 00%
% degradation of peptides in 24 h when incubated with simulated gastric fluid [4]: 00%
half-life [4]: > 24 h

CCCC[C@H](NC(=O)C(C)(Cc1ccccc1F)NC(=O)[C@H](CCC(N)=O)NC(=O)[C@@H](NC(=O)[C@H](CCC(=O)O)NC(=O)C(C)(C)NC(=O)[C@@H](NC(=O)C(C)(C)N)C(C)C)[C@@H](C)CC)C(=O)N[C@@H](Cc1c[nH]cn1)C(=O)N[C@@H](CCC(N)=O)C(=O)NC(C)(C)C(=O)NC(C)(C)C(=O)NC(C)(Cc1c(F)cccc1F)C(=O)NC(C)(Cc1ccccc1F)C(N)=O (stereo partly shown) [Seq. ID. 570] (H-[Aib]V[Aib]EIQ[ξαMePhe(2-F)][Nle]HQ[Aib][Aib][ξαMePhe(2,6-F2)][ξαMePhe(2-F)]-NH2)
half-life [1]: 0.5 h
% degradation of peptides in 24 h when incubated with liver microsomes [1]: 100%
half-life (t1/2) in human plasma [2]: (9) h
metabolised at 24 h, 2 μM [2]: 71%
half-life [3]: 0.5 h
% degradation of peptides in 24 h when incubated with simulated intestinal fluid [3]: 100%
% degradation of peptides in 24 h when incubated with simulated gastric fluid [4]: 100%
half-life [4]: 0.5 h

CCCC[C@H](NC(=O)[C@](C)(Cc1ccccc1F)NC(=O)[C@H](CCC(N)=O)NC(=O)[C@@H](NC(=O)[C@H](CCC(=O)O)NC(=O)C(C)(C)NC(=O)[C@@H](NC(=O)C(C)(C)N)C(C)C)[C@@H](C)CC)C(=O)N[C@@H](Cc1c[nH]cn1)C(=O)N[C@@H](CCC(N)=O)C(=O)N[C@@H](CCCN)C(=O)N[C@@H](C)C(=O)N[C@@H](CCCNC(=N)N[N+](=O)[O-])C(=O)N[C@@](C)(Cc1ccccc1F)C(N)=O [Seq. ID. 329] (H-[Aib]V[Aib]EIQ[αMePhe(2-F)][Nle]HQ[Orn]A[Arg(NO2)][αMePhe(2-F)]-NH2)
half-life [1]: 0.5 h
% degradation of peptides in 24 h when incubated with liver microsomes [1]: 100%
half-life (t1/2) in human plasma [2]: (9) h
metabolised at 24 h, 2 μM [2]: 70%
half-life [3]: 0.5 h
% degradation of peptides in 24 h when incubated with simulated intestinal fluid [3]: 100%
% degradation of peptides in 24 h when incubated with simulated gastric fluid [4]: 100%
half-life [4]: 0.5 h

CCCC[C@H](NC(=O)C(C)(Cc1ccccc1F)NC(=O)[C@H](CCC(N)=O)NC(=O)[C@@H](NC(=O)[C@H](CCC(=O)O)NC(=O)C(C)(C)NC(=O)[C@@H](NC(=O)C1(N)CCCC1)C(C)C)[C@@H](C)CC)C(=O)N[C@@H](Cc1c[nH]cn1)C(=O)N[C@@H](CCC(N)=O)C(=O)N[C@@H](CCCCNC(N)=O)C(=O)NC(C)(C)C(=O)N[C@@H](CCCNC(=N)N[N+](=O)[O-])C(=O)NC(C)(Cc1ccccc1F)C(N)=O (stereo partly shown) [Seq. ID. 460] (H-[Ac5c]V[Aib]EIQ[ξαMePhe(2-F)][Nle]HQ[hCit][Aib][Arg(NO2)][ξαMePhe(2-F)]-NH2)
half-life [1]: 1 h
% degradation of peptides in 24 h when incubated with liver microsomes [1]: 78%
half-life [2]: 8 h
metabolised at 24 h, 2 μM [2]: 71%
half-life (t1/2) in simulated intestinal fluid [3]: (6) h
% degradation of peptides in 24 h when incubated with simulated intestinal fluid [3]: 40%
% degradation of peptides in 24 h when incubated with simulated gastric fluid [4]: 14%
half-life (t1/2) in simulated gastric fluid [4]: (8) h

CCCC[C@H](NC(=O)C(C)(Cc1ccccc1F)NC(=O)[C@H](CCC(N)=O)NC(=O)[C@@H](NC(=O)[C@H](CCC(=O)O)NC(=O)C(C)(C)NC(=O)[C@@H](NC(=O)C(C)(C)N)C(C)C)[C@@H](C)CC)C(=O)N[C@@H](Cc1c[nH]cn1)C(=O)N[C@@H](CCC(N)=O)C(=O)NC(C)(Cc1c(F)cccc1F)C(=O)NC(C)(C)C(=O)NC(C)(C)C(=O)NC(C)(Cc1ccccc1F)C(N)=O (stereo partly shown) [Seq. ID. 490] (H-[Aib]V[Aib]EIQ[ξαMePhe(2-F)][Nle]HQ[ξαMePhe(2,6-F2)][Aib][Aib][ξαMePhe(2-F)]-NH2)
half-life [1]: 2 h
% degradation of peptides in 24 h when incubated with liver microsomes [1]: 84%
half-life [2]: > 24 h
metabolised at 24 h, 2 μM [2]: 0%
half-life [3]: > 24 h
% degradation of peptides in 24 h when incubated with simulated intestinal fluid [3]: 00%
% degradation of peptides in 24 h when incubated with simulated gastric fluid [4]: 43%
half-life [4]: 4 h

CCCC[C@H](NC(=O)C(C)(Cc1c(F)cccc1F)NC(=O)[C@H](CCC(N)=O)NC(=O)[C@@H](NC(=O)[C@H](CCC(=O)O)NC(=O)C(C)(C)NC(=O)[C@@H](NC(=O)C1(N)CCCC1)C(C)C)[C@@H](C)CC)C(=O)N[C@@H](Cc1c[nH]cn1)C(=O)N[C@@H](CCC(N)=O)C(=O)N[C@@H](CCCCNC(=N)N)C(=O)NC(C)(C)C(=O)N[C@@H](CCCNC(=N)N[N+](=O)[O-])C(=O)NC(C)(Cc1ccccc1F)C(N)=O (stereo partly shown) [Seq. ID. 260] (H-[Ac5c]V[Aib]EIQ[ξαMePhe(2,6-F2)][Nle]HQ[hArg][Aib][Arg(NO2)][ξαMePhe(2-F)]-NH2)
half-life [1]: 1 h
% degradation of peptides in 24 h when incubated with liver microsomes [1]: 77%
half-life [2]: 8 h
metabolised at 24 h, 2 μM [2]: 70%
half-life (t1/2) in simulated intestinal fluid [3]: (6) h
% degradation of peptides in 24 h when incubated with simulated intestinal fluid [3]: 41%
% degradation of peptides in 24 h when incubated with simulated gastric fluid [4]: 15%
half-life (t1/2) in simulated gastric fluid [4]: (8) h

— US8383581B2, “Short-chain peptides as parathyroid hormone (PTH) receptor agonist” (Cadila Healthcare Limited, priority 2009, dated 2013)
